# Activity calls are given as the source filed them. The calls are words filed in the database; no cut-off is given here.
# Experiments:
# Assay type in all cases: functional
# Candida albicans [1] = assay: Antifungal activity against Candida albicans ATCC 90028 at 100 uM after 24 hrs by PrestoBlue dye based microdilution broth assay relative to control; details: ATCC 90028, 24 h
# Candida albicans [2] = assay: Antibiofilm activity against Candida albicans ATCC 90028 intermediate phase biofilm at 2 ug/ml after 24 hrs by calcofluor white dye based fluorescent microscopic analysis
# Candida albicans [3] = assay: Antifungal activity against Candida albicans ATCC 90028 after 24 hrs by PrestoBlue dye based microdilution broth assay; details: ATCC 90028, 24 h
# Nakaseomyces glabratus = assay: Antifungal activity against Candida glabrata ATCC 66032 after 24 hrs by PrestoBlue dye based microdilution broth assay; details: ATCC 66032, 24 h
# Candida tropicalis = assay: Antifungal activity against Candida tropicalis ATCC 750 after 24 hrs by PrestoBlue dye based microdilution broth assay; details: ATCC 750, 24 h
# Candida albicans [4] = assay: Antibiofilm activity against Candida albicans ATCC 90028 intermediate phase biofilm at antifungal IC50 to IC99 after 24 hrs by calcofluor white dye based fluorescent microscopic analysis
# Candida albicans [5] = assay: Antibiofilm activity against Candida albicans ATCC 90028 intermediate phase biofilm at 16 ug/ml after 24 hrs by calcofluor white dye based fluorescent microscopic analysis
# Candida albicans [6] = assay: Antibiofilm activity against Candida albicans ATCC 90028 intermediate phase biofilm at 100 ug/ml after 24 hrs by calcofluor white dye based fluorescent microscopic analysis
SMILES,inhibition at 100 µM (Candida albicans [1]) [%],further results
COc1ccc(/C=C2\Oc3cc(O)ccc3C2=O)cc1O,40,
O=C1/C(=C/c2ccc[nH]2)Oc2c1ccc(O)c2O,27.5,
COc1cc(Br)c(/C=C2\Oc3ccccc3C2=O)cc1OC,12.5,
"COc1ccc(/C=C2\Oc3ccccc3C2=O)cc1OC [3',4'-DIMETHOXY-AURONE]",14.2,
C[C@@H]1[C@H](O)[C@@H](C)/C=C/C=C/C=C/C=C/C=C/C=C/C=C/[C@H](O[C@@H]2O[C@H](C)[C@@H](O)[C@H](N)[C@@H]2O)C[C@@H]2O[C@](O)(C[C@@H](O)C[C@@H](O)[C@H](O)CC[C@@H](O)C[C@@H](O)CC(=O)O[C@H]1C)C[C@H](O)[C@H]2C(=O)O,,Activity (Candida albicans [2]): Active
O=C1/C(=C/c2ccccc2O)Oc2ccccc21,1,
O=C1/C(=C/c2ncc[nH]2)Oc2ccccc21,43.9,
COc1cccc(/C=C2\Oc3ccccc3C2=O)c1O,16.7,
O=C1/C(=C/c2ccccn2)Oc2ccccc21,,IC50 (Candida albicans [3]): 18 µM; IC50 (Nakaseomyces glabratus): 10 µM; IC50 (Candida tropicalis): 12 µM; Activity (Candida albicans [4]): inactive
O=C1/C(=C/c2ccc[nH]2)Oc2ccccc21,78.8,
COc1cc(/C=C2\Oc3ccccc3C2=O)ccc1O,11.2,
O=C1/C(=C/c2cccs2)Oc2c1ccc(O)c2O,26,
COc1ccc(/C=C2\Oc3ccccc3C2=O)cc1O,45.6,
COc1ccc(/C=C2\Oc3c(ccc(O)c3O)C2=O)cc1O,99.4,IC50 (Candida albicans [3]): 16 µM; IC99 (Candida albicans [3]): 100 µM; IC50 (Nakaseomyces glabratus): 11 µM; IC50 (Candida tropicalis): 10 µM; Activity (Candida albicans [5]): inactive; Activity (Candida albicans [6]): Active

# Reference: ChEMBL document CHEMBL4002617, “Antifungal activity of substituted aurones” (Bioorg Med Chem Lett, 2017)
